Measurements taken from PubChem BioAssay (NCI).
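Dose response: 5 concentrations. Exposure: 48 h. Format: 96-well plates. Endpoint: linear interpolation; highest concentration if not reached. Here, GI50 denotes the concentration required for 50% inhibition of growth. The concentration for full growth arrest is given as TGI.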

Experiments:
Assay in all cases: inhibition of tumour cell growth, NCI panel, 48 h
[1] = tested on: RPMI-8226 leukemia
[2] = tested on: NCI/ADR-RES ovarian
[3] = tested on: DU-145 prostate
[4] = tested on: NCI-H522 lung
[5] = tested on: MCF7 breast
[6] = tested on: SNB-19 CNS
[7] = tested on: CCRF-CEM leukemia
[8] = tested on: MOLT-4 leukemia
[9] = tested on: SF-295 CNS
[10] = tested on: PC-3 prostate

Row | Compound | TGI [1] | TGI [2] | TGI [3] | TGI [4] | TGI [5] | TGI [6] | TGI [7] | TGI [8] | TGI [9] | TGI [10] | GI50 [1] | GI50 [2] | GI50 [3] | GI50 [4] | GI50 [5] | GI50 [6] | GI50 [7] | GI50 [8] | GI50 [9] | GI50 [10]
1 | CCCN1C(=O)CCC2=C1CCc1c2ccc(Cl)c1Cl | > 100 µM | > 100 µM | > 100 µM | 91.4 µM | > 100 µM | > 100 µM | > 100 µM | > 100 µM | > 100 µM | > 100 µM | – | – | – | – | – | – | – | – | – | –
2 | COc1ccc(C2SCC(=O)N2c2ccc(-c3ccc(-n4c(-c5ccccc5)nc5ccccc5c4=O)cc3)cc2)cc1 (stereo not given) | > 100 µM | > 100 µM | > 100 µM | > 100 µM | > 100 µM | > 100 µM | > 100 µM | > 100 µM | > 100 µM | > 100 µM | – | – | – | – | – | – | – | – | – | –
3 | NC1C/C(=N\O)c2c(I)sc(I)c21 (stereo not given) | > 42 µM | 43.1 µM | 31.4 µM | 3.7 µM | 36 µM | 39.3 µM | > 100 µM | > 100 µM | 31.8 µM | 31.6 µM | – | – | – | – | – | – | – | – | – | –
4 | O=C1c2ccccc2CC12Cc1cc3c(cc1C2=O)CCC3 (stereo not given) | > 100 µM | > 100 µM | > 100 µM | > 100 µM | > 100 µM | > 100 µM | > 100 µM | > 100 µM | > 100 µM | > 100 µM | – | – | – | – | – | – | – | – | – | –
5 | CN1C(c2ccccc2)=CC(=O)C(O)=C(c2ccccc2)S1(=O)=O | > 100 µM | > 100 µM | > 100 µM | > 100 µM | > 100 µM | > 100 µM | > 100 µM | > 100 µM | > 100 µM | > 100 µM | – | – | – | – | – | – | – | – | – | –
6 | O=C(/C=C/c1ccc(O)c(O)c1)OCCc1cccc2ccccc12 | 20.5 µM | 29.4 µM | 18.6 µM | 4.17 µM | 25.7 µM | 28.4 µM | 11.2 µM | 12.3 µM | 17.9 µM | 16.3 µM | – | – | – | – | – | – | – | – | – | –
7 | Nc1nc(Cl)cc(NCC2(CO)CCC(Cc3ccccc3)C2)n1 (stereo not given) | 62.7 µM | > 100 µM | > 100 µM | 49 µM | 71 µM | > 100 µM | 75.4 µM | 30.6 µM | > 100 µM | > 96.1 µM | – | – | – | – | – | – | – | – | – | –
8 | CC(C)CCC1(O)O[C@H]2C[C@H]3[C@@H]4CCC5CC(=O)C=C[C@]5(C)[C@H]4CC[C@]3(C)[C@H]2[C@@H]1C (stereo not given in full) | 21.4 µM | 33.1 µM | 28.2 µM | 3.8 µM | 20.3 µM | 31.3 µM | 10.3 µM | 7.15 µM | 24 µM | 17.4 µM | – | – | – | – | – | – | – | – | – | –
9 | NNC(=O)c1c(Cl)c(Cl)c(Cl)c(Cl)c1-c1nc2ccccc2[nH]1 | > 100 µM | 59.8 µM | 38.3 µM | > 100 µM | 23 µM | 88.8 µM | 54.2 µM | 26.3 µM | 24 µM | > 100 µM | – | – | – | – | – | – | – | – | – | –
10 | COC(=O)CC1(CNC(=O)OCc2ccccc2)OCCO1 | > 100 µM | > 100 µM | > 100 µM | > 100 µM | > 100 µM | > 100 µM | > 100 µM | > 100 µM | > 100 µM | > 100 µM | – | – | – | – | – | – | – | – | – | –
11 | O=C(CSc1nc(=O)[nH]c2nc[nH]c12)Nc1ccccc1 | > 100 µM | > 100 µM | > 100 µM | > 100 µM | > 100 µM | > 100 µM | > 100 µM | > 100 µM | > 100 µM | > 100 µM | – | – | – | – | – | – | – | – | – | –
12 | COC(=O)C(CCC1C=CCC1)N=Cc1ccccc1 (stereo not given) | 84.7 µM | > 100 µM | > 100 µM | > 100 µM | > 100 µM | > 100 µM | > 100 µM | > 100 µM | > 100 µM | > 100 µM | – | – | – | – | – | – | – | – | – | –
13 | CC(=O)O[C@H]1C[C@]2(C)C(CCC3O[C@@]32C)[C@@]2(CC(c3ccoc3)OC2O)[C@@H]1C (stereo not given in full) | 81.1 µM | > 100 µM | > 100 µM | > 100 µM | > 100 µM | > 100 µM | 88.3 µM | 93 µM | > 100 µM | > 100 µM | – | – | – | – | – | – | – | – | – | –
14 | CC(=O)OCC1OC(n2c(N)c(C#N)c(-c3ccccc3)c(C#N)c2=S)C(OC(C)=O)C(OC(C)=O)C1OC(C)=O (stereo not given) | > 100 µM | > 100 µM | > 100 µM | > 100 µM | > 100 µM | > 75.4 µM | > 100 µM | > 100 µM | > 93 µM | > 100 µM | – | – | – | – | – | – | – | – | – | –
15 | CC(=O)Nc1ccc(CNc2cc(=O)[nH]c(=O)[nH]2)cc1 | > 100 µM | > 100 µM | > 100 µM | > 100 µM | > 100 µM | > 100 µM | > 100 µM | > 100 µM | > 100 µM | > 100 µM | – | – | – | – | – | – | – | – | – | –
16 | Cc1cc(N(CCC#N)CCC#N)ccc1/C(N=Nc1cccc([N+](=O)[O-])c1)=N/NC(=O)c1cc(Cl)ccc1O | 47.5 µM | > 100 µM | > 100 µM | 90.2 µM | > 100 µM | > 100 µM | 26.7 µM | 32.1 µM | > 100 µM | > 100 µM | – | – | – | – | – | – | – | – | – | –
17 | O=C1OCC(C#Cc2ccccc2)=C1Cl | 4.61 µM | 13.8 µM | 11.8 µM | 14.7 µM | > 100 µM | 67.9 µM | 18.1 µM | 46.1 µM | > 100 µM | 5.67 µM | 1.56 µM | 3.32 µM | 1.6 µM | 3.08 µM | 1.71 µM | 7.49 µM | 0.222 µM | 14.3 µM | 21.6 µM | 1.99 µM
18 | OCCN(CCO)c1ccc2c(C(F)(F)F)cc(C(F)(F)F)nc2n1 | > 100 µM | > 100 µM | > 100 µM | > 100 µM | > 100 µM | > 100 µM | > 100 µM | > 100 µM | > 100 µM | > 100 µM | – | – | – | – | – | – | – | – | – | –
19 | O=C(CN1CCN(C(=O)OCc2ccccc2)CCN(CC(=O)N2CCCCC2)CCN(C(=O)OCc2ccccc2)CC1)N1CCCCC1 | 37.3 µM | 32.5 µM | > 54.8 µM | 19 µM | 44.6 µM | > 52.5 µM | > 49.8 µM | > 46 µM | 41.1 µM | 37.3 µM | – | – | – | – | – | – | – | – | – | –
20 | O=C1C2C=CC1C1C(=O)OC(=O)C21 (stereo not given) | > 100 µM | > 100 µM | > 100 µM | > 100 µM | > 100 µM | > 100 µM | > 100 µM | > 100 µM | > 100 µM | > 100 µM | – | – | – | – | – | – | – | – | – | –
21 | Cc1ccc(/C=C/C(=O)c2c([O-])on[n+]2-c2ccccc2)cc1 | 6.35 µM | 7.11 µM | 8.41 µM | 8.06 µM | 19 µM | > 33.5 µM | > 100 µM | 6.64 µM | > 46.4 µM | 17.2 µM | – | – | – | – | – | – | – | – | – | –
